Measured values taken from publication PMC7500638, “Dissecting the antibacterial activity of oxadiazolone-core derivatives against Mycobacterium abscessus” (PLoS ONE, 2020).

Target: T1, Ag85CMabs (Ag85C, MAB_0175) (Mycobacteroides abscessus, UniProt B1MEL1)
T1 construct: C-terminal 6His-tag; pMyC vector, expressed in M. smegmatis delta-groEL1
Test: competitive TAMRA-FP activity-based probe labelling, in-gel fluorescence
Assay type: binding
Conditions: covalent; 14 uM enzyme, 1 h preincubation, 10 mM Tris pH 8, 150 mM NaCl, 0.1% Triton X-100; catalytic Ser124

T1 sequence (B1MEL1 entry or part of it): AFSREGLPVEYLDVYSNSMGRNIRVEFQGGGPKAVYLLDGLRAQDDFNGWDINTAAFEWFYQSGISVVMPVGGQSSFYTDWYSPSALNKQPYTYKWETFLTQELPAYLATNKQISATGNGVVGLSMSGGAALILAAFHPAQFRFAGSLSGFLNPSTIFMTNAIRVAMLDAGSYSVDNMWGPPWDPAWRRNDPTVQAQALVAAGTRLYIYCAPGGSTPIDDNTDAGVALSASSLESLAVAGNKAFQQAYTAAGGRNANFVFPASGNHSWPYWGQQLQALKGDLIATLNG

CC(C)COc1nn(-c2ccc(Oc3ccccc3)cc2)c(=O)o1 [iBpPPOX] was tested, and the “% loss of TAMRA-FP labelling at E/I 1:75” value was > 90%.
